Test results taken from PubChem BioAssay (NCI).
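All cell lines were grown in 96-well plates and treated with compound for 48 hours. At the GI50, growth is halved. The concentration for full growth arrest is given as TGI.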

Key:
Experiment in all cases: DTP human tumour cell line panel, 48 h
[1] = system: SN12C renal
[2] = system: HL-60(TB) leukemia
[3] = system: NCI-H23 lung
[4] = system: SK-MEL-28 melanoma
[5] = system: DU-145 prostate
[6] = system: ACHN renal
[7] = system: HCT-15 colon
[8] = system: SW-620 colon
[9] = system: CAKI-1 renal
[10] = system: NCI-H460 lung
[11] = system: SK-MEL-5 melanoma
[12] = system: U251 CNS
[13] = system: NCI-H522 lung
[14] = system: PC-3 prostate
[15] = system: SR leukemia
[16] = system: TK-10 renal
[17] = system: MDA-MB-231 breast
[18] = system: RXF 393 renal
[19] = system: MALME-3M melanoma
[20] = system: SK-OV-3 ovarian
[21] = system: HCT-116 colon
[22] = system: UO-31 renal
[23] = system: BT-549 breast
[24] = system: HOP-92 NSCLC
[25] = system: OVCAR-3 ovarian
[26] = system: HT29 colon
[27] = system: MDA-MB-435
[28] = system: MOLT-4 leukemia
[29] = system: T-47D breast
[30] = system: SNB-75 CNS
[31] = system: HOP-62 NSCLC
[32] = system: UACC-257 melanoma
[33] = system: 786-0 renal
[34] = system: IGROV1 ovarian
[35] = system: OVCAR-4 ovarian
[36] = system: MCF7 breast
[37] = system: SF-295 CNS
[38] = system: SF-539 CNS
[39] = system: KM12 colon
[40] = system: OVCAR-8 ovarian
[41] = system: A498 renal
[42] = system: SK-MEL-2 melanoma
[43] = system: HCC-2998 colon
[44] = system: SNB-19 CNS
[45] = system: K-562 leukemia
[46] = system: NCI/ADR-RES ovarian
[47] = system: RPMI-8226 leukemia
[48] = system: EKVX NSCLC
[49] = system: SF-268 CNS
[50] = system: A549 NSCLC
[51] = system: COLO 205 colon
[52] = system: HS 578T breast
[53] = system: UACC-62 melanoma
[54] = system: NCI-H226 lung
[55] = system: LOX IMVI melanoma
[56] = system: OVCAR-5 ovarian
[57] = system: CCRF-CEM leukemia
[58] = system: M14 melanoma

CC1(C)[C@@H](O[C@@H]2OC[C@@H](O[C@@H]3O[C@H](CO)[C@@H](O)[C@H](O)[C@H]3O[C@@H]3OC[C@@H](O)[C@H](O)[C@H]3O)[C@H](O)[C@H]2O[C@@H]2O[C@H](CO)[C@@H](O)[C@H](O)[C@H]2O)CC[C@]2(C)[C@H]3CC[C@]45OC[C@@]6(CC[C@](C)(C=O)C[C@H]64)[C@H](O)C[C@@]5(C)[C@]3(C)CC[C@@H]12
GI50 [1]: 847 nM | TGI [1]: 1790 nM | GI50 [2]: 1040 nM | TGI [2]: 2210 nM | GI50 [3]: 984 nM | TGI [3]: 2120 nM | GI50 [4]: 903 nM | TGI [4]: 1770 nM | GI50 [5]: 1090 nM | TGI [5]: 2330 nM | GI50 [6]: 824 nM | TGI [6]: 1540 nM | GI50 [7]: 1620 nM | TGI [7]: 4370 nM | GI50 [8]: 969 nM | TGI [8]: 2040 nM | GI50 [9]: 763 nM | TGI [9]: 1450 nM | GI50 [10]: 1170 nM | TGI [10]: 3260 nM | GI50 [11]: 2800 nM | TGI [11]: 5360 nM | GI50 [12]: 990 nM | TGI [12]: 2010 nM | GI50 [13]: 903 nM | TGI [13]: 1830 nM | GI50 [14]: 884 nM | TGI [14]: 1780 nM | GI50 [15]: 185 nM | TGI [15]: 1920 nM | GI50 [16]: 945 nM | TGI [16]: 1830 nM | GI50 [17]: 915 nM | TGI [17]: 1900 nM | GI50 [18]: 892 nM | TGI [18]: 2070 nM | GI50 [19]: 879 nM | TGI [19]: 1740 nM | GI50 [20]: 922 nM | TGI [20]: 1670 nM | GI50 [21]: 898 nM | TGI [21]: 1910 nM | GI50 [22]: 649 nM | TGI [22]: 1320 nM | GI50 [23]: 1140 nM | TGI [23]: 3370 nM | GI50 [24]: 704 nM | TGI [24]: 1540 nM | GI50 [25]: 1010 nM | TGI [25]: 2060 nM | GI50 [26]: 1010 nM | TGI [26]: 2060 nM | GI50 [27]: 851 nM | TGI [27]: 1600 nM | GI50 [28]: 962 nM | TGI [28]: 2310 nM | GI50 [29]: 1520 nM | TGI [29]: 5000 nM | GI50 [30]: 746 nM | TGI [30]: 1530 nM | GI50 [31]: 898 nM | TGI [31]: 1790 nM | GI50 [32]: 920 nM | TGI [32]: 1830 nM | GI50 [33]: 2840 nM | TGI [33]: 5770 nM | GI50 [34]: 872 nM | TGI [34]: 1840 nM | GI50 [35]: 794 nM | TGI [35]: 1660 nM | GI50 [36]: 972 nM | TGI [36]: 2430 nM | GI50 [37]: 892 nM | TGI [37]: 1640 nM | GI50 [38]: 1210 nM | TGI [38]: 3350 nM | GI50 [39]: 1210 nM | TGI [39]: 3170 nM | GI50 [40]: 1070 nM | TGI [40]: 2570 nM | GI50 [41]: 825 nM | TGI [41]: 1530 nM | GI50 [42]: 886 nM | TGI [42]: 1740 nM | GI50 [43]: 931 nM | TGI [43]: 1750 nM | GI50 [44]: 872 nM | TGI [44]: 1770 nM | GI50 [45]: 1810 nM | TGI [45]: 5510 nM | GI50 [46]: 1240 nM | TGI [46]: 3430 nM | GI50 [47]: 1120 nM | TGI [47]: 2560 nM | GI50 [48]: 945 nM | TGI [48]: 1960 nM | GI50 [49]: 963 nM | TGI [49]: 1990 nM | GI50 [50]: 943 nM | TGI [50]: 1950 nM | GI50 [51]: 1020 nM | TGI [51]: 2010 nM | GI50 [52]: 995 nM | TGI [52]: 2400 nM | GI50 [53]: 909 nM | TGI [53]: 1810 nM | GI50 [54]: 985 nM | TGI [54]: 2110 nM | GI50 [55]: 924 nM | TGI [55]: 1950 nM | GI50 [56]: 834 nM | TGI [56]: 1660 nM | GI50 [57]: 1020 nM | TGI [57]: 3130 nM | GI50 [58]: 925 nM | TGI [58]: 1810 nM
